Reference: patent US20080312301A1, “Substituted N-Benzo[D]Isoxazol-3-Yl-Amine Compounds as Inhibitors of Mglur5, Serotonin (5-Ht) and Noradrenaline Receptors, and Uses Thereof” (Gruenenthal GmbH, priority 2005, published 2008)

Molecular target: T1, NA transporter (Rattus norvegicus, UniProt Q63380)
T1 construct: from tissue; host or cells: rat hypothalamus synaptosomes (P2 fraction)
Experiment: Noradrenaline (NA) uptake inhibition in rat brain synaptosomes (hypothalamus), [3H]-NA
Assay type: biochemical
Conditions: not given
From the text: I. Method for Determining the Noradrenaline and 5HT Uptake Inhibition:
For in vitro studies, synaptosomes were freshly isolated from rat brain areas as described in the publication “The isolation of nerve endings from brain” by E. G. Gray and V. P. Whittaker, J. Anatomy 96, pages 79-88, 1962. The corresponding literature description is introduced hereby as reference and forms part of the disclosure.
The tissue (hypothalamus for determining the noradrenaline uptake inhibition and medulla and pons for determining the 5HT uptake inhibition) was homogenized in ice-cold 0.32 M sucrose (100 mg of tissue/1 ml) in a glass homogenizer with Teflon pestle using five full up and down strokes at 840 revolutions/minute. The homogenate was centrifuged at 1000 g and at 4° C. for 10 minutes. After subsequent centrifugation at 17 000 g for 55 minutes, the synaptosomes (P2 fraction) are obtained and were resuspended in 0.32 M […] (0.5 ml/100 mg of the original weight).
The respective uptake was measured in a 96-well microtiter plate. The volume was 250 μl and incubation took place at room temperature (approx. 20-25° C.) under an O2 atmosphere.
The incubation time was 7.5 minutes for [^3H]-NA and 5 minutes for [^3H]-5-HT. The 96 samples were then filtered through a Unifilter GF/B® microtiter plate (Packard) and washed with […] of incubated buffer using a “Brabdel MPXRI-96T Cell Harvester”. The Unifilter GF/B plate was dried at 55° C. for 1 h. The plate was then sealed with a Back Seal® (Packard) and 35 μl of scintillation fluid were added per well (Ultima Gold®, Packard). After sealing with a top Seal® (Packard), the radioactivity was determined, after equilibrium had been reached (about 5 h), in a “Trilux 1450 Microbeta” (Wallac).
The following characteristic data were found for the NA transporter:
The amount of protein employed in the above determination corresponded to the value disclosed in the literature, as described for example in “Protein measurement with the folin phenol reagent”, Lowry et al., J. Biol. Chem., 193, 265-275, 1951. A detailed description of the method can also be found in the literature, for example from M. Ch. Frink, H.-H. Hennies, W. Engelberger, M. Haurand and B. Wilffert (1996) Arzneim.-Forsch./Drug Res. 46 (III), 11, 1029-1036. The corresponding literature descriptions are hereby introduced as reference and form part of the disclosure.

T1 sequence (Q63380 1-617): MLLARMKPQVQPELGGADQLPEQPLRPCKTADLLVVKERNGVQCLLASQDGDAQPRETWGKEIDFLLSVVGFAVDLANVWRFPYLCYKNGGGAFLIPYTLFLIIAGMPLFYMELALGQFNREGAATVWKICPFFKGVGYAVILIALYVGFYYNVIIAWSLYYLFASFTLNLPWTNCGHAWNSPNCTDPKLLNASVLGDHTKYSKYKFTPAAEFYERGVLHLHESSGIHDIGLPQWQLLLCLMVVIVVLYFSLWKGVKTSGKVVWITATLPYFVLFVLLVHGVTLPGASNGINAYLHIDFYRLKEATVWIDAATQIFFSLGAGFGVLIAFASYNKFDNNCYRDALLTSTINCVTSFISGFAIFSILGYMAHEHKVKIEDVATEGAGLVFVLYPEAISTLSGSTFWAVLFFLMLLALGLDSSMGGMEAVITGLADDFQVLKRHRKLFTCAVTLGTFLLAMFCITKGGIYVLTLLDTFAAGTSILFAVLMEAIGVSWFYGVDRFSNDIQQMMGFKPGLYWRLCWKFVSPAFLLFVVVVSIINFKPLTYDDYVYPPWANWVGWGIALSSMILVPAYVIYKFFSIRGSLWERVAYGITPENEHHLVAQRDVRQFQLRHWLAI

Point of comparison: `O=C(Nc1noc2ccc(Br)cc12)c1ccco1` [Example 50, furan-2-(5-bromobenzo[d]isoxazol-3-yl)carboxamide], “NA uptake inhibition [%] conc. 10 μM” value 66%. Against it:
- O=C(Nc1noc2cccc(OCC(F)(F)F)c12)c1ccc2ccccc2c1 [Example 81, naphthalene-2-[4-(2,2,2-trifluoroethoxy)benzo[d]isoxazol-3-yl]carboxamide] — lower, 65%
- CCCc1ccc(C(=O)Nc2noc3cccc(F)c23)cc1 [Example 58, N-(74-fluorobenzo[d]isoxazol-3-yl)-4-propylbenzamide] — lower, 64%
- furan-2-(4-dimethylaminobenzo[d]isoxazol-3-yl)carboxamide [Example 75] — lower, 64%
- Nc1cccc2onc(NC(=O)c3cccc4ccccc34)c12 [Example 11, naphthalene-1-(4-aminobenzo[d]isoxazol-3-yl)carboxamide] — higher, 71%
- CN(C)c1cccc2onc(NC(=O)c3ccc4ccccc4c3)c12 [Example 67, naphthalene-2-(4-dimethylaminobenzo[d]isoxazol-3-yl)carboxamide] — higher, 73%
- O=C(Nc1noc2ccc(Br)cc12)C1CC1 [Example 8, cyclopropane(5-bromobenzo[d]isoxazol-3-yl)carboxamide] — lower, 62%

Same assay, conditions: conc. 10 μM

Point of comparison: `O=C(Nc1noc2c(F)cccc12)c1cccc(C(F)(F)F)c1F` [Example 60, 2-fluoro-N-(7-fluorobenzo[d]isoxazol-3-yl)-3-trifluoromethylbenzamide], inhibition at 10 µM 66%. Against it:
- O=C(Nc1noc2c(F)cccc12)c1ccc(I)cc1 [Example 55, N-(7-fluorobenzo[d]isoxazol-3-yl)-4-iodobenzamide] — higher, 69%
- CCCc1ccc(C(=O)Nc2noc3cc(Br)ccc23)cc1 [Example 48, N-(6-bromobenzo[d]isoxazol-3-yl)-4-propylbenzamide] — lower, 61%
- COc1cccc(C(=O)Nc2noc3cccc(N(C)C)c23)c1 [Example 71, N-(4-dimethylaminobenzo[d]isoxazol-3-yl)-3-methoxybenzamide] — lower, 65%
- Nc1cccc2onc(NC(=O)c3ccc([N+](=O)[O-])cc3)c12 [Example 10, N-(4-aminobenzo[d]isoxazol-3-yl)-4-nitrobenzamide] — the same, 66%
- COc1cccc2onc(NC(=O)C(c3ccccc3)c3ccccc3)c12 [Example 7, N-(4-methoxybenzo[d]isoxazol-3-yl)-2,2-diphenylacetamide] — lower, 63%
- O=C(Nc1noc2cc(Cl)ccc12)c1ccc(I)cc1 [Example 40, N-(6-chlorobenzo[d]isoxazol-3-yl)-4-iodobenzamide] — lower, 61%
- CN(C)c1cccc2onc(NC(=O)C(F)(F)C(F)(F)C(F)(F)F)c12 [Example 76, N-(4-dimethylaminobenzo[d]isoxazol-3-yl)-2,2,3,3,4,4,4-heptafluorobutyramide] — higher, 67%
- O=C(Nc1noc2cc(Cl)ccc12)c1ccc(F)c(F)c1 [Example 42, N-(6-chlorobenzo[d]isoxazol-3-yl)-3,4-difluorobenzamide] — lower, 64%
- CN(C)c1cccc2onc(NC(=O)c3cccc(C(F)(F)F)c3F)c12 [Example 70, N-(4-dimethylaminobenzo[d]isoxazol-3-yl)-2-fluoro-3-trifluoromethylbenzamide] — the same, 66%
- O=C(Nc1noc2c(F)cccc12)c1ccc(C(F)(F)F)c(F)c1 [Example 53, 3-fluoro-N-(7-fluorobenzo[d]isoxazol-3-yl)-4-trifluoromethylbenzamide] — higher, 69%
- CN(C)c1cccc2onc(NC(=O)c3ccc(F)c(F)c3)c12 [Example 69, N-(4-dimethylaminobenzo[d]isoxazol-3-yl)-3,4-difluorobenzamide] — higher, 67%
- CN(C)c1cccc2onc(NC(=O)C(c3ccccc3)c3ccccc3)c12 [Example 74, N-(4-dimethylaminobenzo[d]isoxazol-3-yl)-2,2-diphenylacetamide] — higher, 70%
- O=C(Nc1noc2cc(Br)ccc12)c1ccc(F)c(F)c1F [Example 47, N-(6-bromobenzo[d]isoxazol-3-yl)-2,3,4-trifluorobenzamide] — the same, 66%
- O=C(Nc1noc2cc(Br)ccc12)c1ccc(C(F)(F)F)c(F)c1 [Example 45, N-(6-bromobenzo[d]isoxazol-3-yl)-3-fluoro-4-trifluoromethylbenzamide] — lower, 64%
- O=C(Nc1noc2c(F)cccc12)c1cc(F)c(Cl)cc1Cl [Example 52, 2,4-dichloro-5-fluoro-N-(7-fluorobenzo[d]isoxazol-3-yl)benzamide] — higher, 70%
- CN(C)c1cccc2onc(NC(=O)c3cccnc3Cl)c12 [Example 66, 2-chloro-N-(4-dimethylaminobenzo[d]isoxazol-3-yl)nicotinamide] — lower, 64%
- O=C(Nc1noc2cc(F)ccc12)c1cc(Cl)cc(Cl)c1 [Example 9, 3,5-dichloro-N-(6-fluorobenzo[d]isoxazol-3-yl)benzamide] — higher, 67%
- O=C(Nc1noc2c(F)cccc12)c1ccc(F)c(F)c1F [Example 54, 2,3,4-trifluoro-N-(7-fluorobenzo[d]isoxazol-3-yl)benzamide] — lower, 63%
- O=C(Nc1noc2c(F)cccc12)c1ccc(F)c(F)c1 [Example 59, 3,4-difluoro-N-(7-fluorobenzo[d]isoxazol-3-yl)benzamide] — higher, 67%
- CN(C)c1cccc2onc(NC(=O)C(C)(C)C)c12 [Example 72, N-(4-dimethylaminobenzo[d]isoxazol-3-yl)-2,2-dimethylpropionamide] — the same, 66%
- O=C(Nc1noc2cccc(OCC(F)(F)F)c12)c1cccc(C(F)(F)F)c1F [Example 83, 2-fluoro-N-[4-(2,2,2-trifluoroethoxy)benzo[d]isoxazol-3-yl]-3-trifluoromethyl-benzamide] — lower, 65%
- O=C(Nc1noc2cc(Br)ccc12)c1cc(F)cc(C(F)(F)F)c1 [Example 46, N-(6-bromobenzo[d]isoxazol-3-yl)-3-fluoro-5-trifluoromethylbenzamide] — lower, 65%
- CN(C)c1cccc2onc(NC(=O)c3cc(F)c(Cl)cc3Cl)c12 [Example 64, 2,4-dichloro-N-(4-dimethylaminobenzo[d]isoxazol-3-yl)-5-fluorobenzamide] — lower, 63%
- O=C(Nc1noc2cc(Br)ccc12)c1cc(F)c(Cl)cc1Cl [Example 44, 2,4-dichloro-N-(6-bromobenzo[d]isoxazol-3-yl)-5-fluorobenzamide] — lower, 61%
- CN(C)c1cccc2onc(NC(=O)c3ccc(F)c(F)c3F)c12 [Example 65, N-(4-dimethylaminobenzo[d]isoxazol-3-yl)-2,3,4-trifluorobenzamide] — higher, 68%
- COc1cccc(C(=O)Nc2noc3c(F)cccc23)c1 [Example 61, N-(7-fluorobenzo[d]isoxazol-3-yl)-3-methoxybenzamide] — the same, 66%
- CCCc1ccc(C(=O)Nc2noc3cccc(N(C)C)c23)cc1 [Example 68, N-(4-dimethylaminobenzo[d]isoxazol-3-yl)-4-propylbenzamide] — higher, 73%
- O=C(Nc1noc2cccc(OCC(F)(F)F)c12)c1ccc(C(F)(F)F)c(F)c1 [Example 79, 3-fluoro-N-[4-(2,2,2-trifluoroethoxy)benzo[d]isoxazol-3-yl]-4-trifluoromethyl-benzamide] — lower, 62%
